Data: US20100016232A1, “Treatment Of Inflammatory Diseases With Mammal Beta Defensins” (Novozymes A/S, priority 2008, published 2010)
Marks after values point to notes of the source that are not given here.

Columns and labels:
Format in all cases: in vivo
[1] = tested on: DSS-induced colitis in the mouse; assay: 10-day DSS-induced colitis, colon histological score (Example 5); settings: 1 mg/kg p.o. daily, day 10
Text: (§1) Animals were divided into 5 experimental groups.
Their colons were removed and their length and weight measured after exclusion of the caecum.
(§2) Two sections (proximal and distal) of colon were taken from each animal and preserved in neutral buffered formalin for subsequent histological analysis (haematoxylin and eosin staining) according to the following scoring system:
Two sections (proximal and distal) of colon were taken from each animal, processed for histological analysis (haematoxylin and eosin staining) and scored by a blind observer according to the histological scoring system described above.

[2] = tested on: DSS-induced colitis in the mouse; assay: 10-day DSS-induced colitis, Disease Activity Index (Example 5); settings: 1 mg/kg p.o. daily
Method: as §1
Colitis was induced in mice by supplementing their drinking water with DSS 2% for 7 days.
(§3) Daily clinical assessment of DSS-treated animals was carried out, with the calculation of a validated clinical Disease Activity Index (DAI) ranging from 0 to 4 according to the following parameters: stool consistency, presence or absence of rectal bleeding and weight loss:
Bodyweight loss was calculated as the percent difference between the original bodyweight (Day 1) and the actual bodyweight on each experimental day (2-10).
The appearance of diarrhoea is defined as mucus/faecal material adherent to anal fur. Rectal bleeding is defined as diarrhoea containing visible blood/mucus or gross rectal bleeding. The maximum score of the DAI each day is 12.

[3] = tested on: DSS-induced colitis in the mouse; assay: 10-day DSS-induced colitis, colon histological score (Example 6)
Method: as §2
(§4) Example 6 was carried out essentially as described in Example 5. The differences are indicated below.
(§5) Animals were divided into 9 experimental groups.
Two sections (proximal and distal) of colon were taken from each animal, processed for histological analysis (haematoxylin and eosin staining), and scored by a blind observer according to the scoring system described above.

[4] = tested on: DSS-induced colitis in the mouse; assay: 10-day DSS-induced colitis, Disease Activity Index (Example 6); parameters: key: clinical Disease Activity Index (stool, bleeding, weight loss)
Method: as §3, §4, §5
The animals in group F received one dose i.v. and another dose s.c. (12 hours after the i.v. dose) of the corresponding test item for 10 consecutive days.
The animals in group G received one dose every two days of the corresponding test item for 10 consecutive days.
Methylprednisolone was given orally at a dose of 1 mg/kg (group H) and 10 mg/kg (group J) in a dosing volume of 5 ml/kg body weight, once daily for 10 consecutive days.

SMILES: C[C@H]1C[C@@H]2[C@H]([C@@H](O)C[C@@]3(C)[C@H]2CC[C@]3(O)C(=O)COC(=O)CCC(=O)O)[C@@]2(C)C=CC(=O)C=C12 [Methylprednisolone 21-hemisuccinate, reference compound]
- Histology Score Distal Colon [1]: 3.70
- Histology Score Proximal Colon [1]: 2.80*
- Histology Score Proximal Colon ([1]; listed as prednisolone): 2.8±0.5
- DAI score ([2]; Day 1): 0.00
- DAI score ([2]; Day 2): 0.10
- DAI score ([2]; Day 3): 0.00
- DAI score ([2]; Day 4): 2.60
- DAI score ([2]; Day 5): 2.50
- DAI score ([2]; Day 6): 2.60
- DAI score ([2]; Day 7): 3.10
- DAI score ([2]; Day 8): 2.50*
- DAI score ([2]; Day 9): 3.80*
- DAI score ([2]; Day 10): 4.90**
- Histology Score Distal Colon, mean ([3]; Group H, 1 mg/kg p.o.): 3.00***
- Histology Score Proximal Colon, mean ([3]; Group H, 1 mg/kg p.o.): 1.40
- Histology Score Distal Colon, mean ([3]; Group J, 10 mg/kg p.o.): 2.70***
- Histology Score Proximal Colon, mean ([3]; Group J, 10 mg/kg p.o.): 1.40
- DAI score, mean ([4]; Group H, 1 mg/kg p.o., Day 1): 0.00
- DAI score, mean ([4]; Group H, 1 mg/kg p.o., Day 2): 0.50
- DAI score, mean ([4]; Group H, 1 mg/kg p.o., Day 3): 0.50
- DAI score, mean ([4]; Group H, 1 mg/kg p.o., Day 4): 0.40
- DAI score, mean ([4]; Group H, 1 mg/kg p.o., Day 5): 1.10
- DAI score, mean ([4]; Group H, 1 mg/kg p.o., Day 6): 3.80
- DAI score, mean ([4]; Group H, 1 mg/kg p.o., Day 7): 5.90
- DAI score, mean ([4]; Group H, 1 mg/kg p.o., Day 8): 6.40
- DAI score, mean ([4]; Group H, 1 mg/kg p.o., Day 9): 5.60*
- DAI score, mean ([4]; Group H, 1 mg/kg p.o., Day 10): 5.60*
- DAI score, mean ([4]; Group J, 10 mg/kg p.o., Day 1): 0.00
- DAI score, mean ([4]; Group J, 10 mg/kg p.o., Day 2): 0.30
- DAI score, mean ([4]; Group J, 10 mg/kg p.o., Day 3): 0.70
- DAI score, mean ([4]; Group J, 10 mg/kg p.o., Day 4): 0.80
- DAI score, mean ([4]; Group J, 10 mg/kg p.o., Day 5): 1.30
- DAI score, mean ([4]; Group J, 10 mg/kg p.o., Day 6): 2.00
- DAI score, mean ([4]; Group J, 10 mg/kg p.o., Day 7): 3.20**
- DAI score, mean ([4]; Group J, 10 mg/kg p.o., Day 8): 4.80**
- DAI score, mean ([4]; Group J, 10 mg/kg p.o., Day 9): 5.20*
- DAI score, mean ([4]; Group J, 10 mg/kg p.o., Day 10): 4.00***
